# Experimental data taken from the NIST ThermoML archive (doi:10.1021/je400655j).
# Numbers after ± are expanded uncertainties.
# Assay: wn = mass fraction of the nth substance listed
# Conditions: 101 kPa, Liquid; for mass density: Vibrating tube method; for viscosity: Concentric cylinders viscometry
compound,measurement,setting,value
CC(CC(C)(C)C)CP(=O)([O-])CC(C)CC(C)(C)C.CCCCCCCCCCCCCC[P+](CCCCCC)(CCCCCC)CCCCCC + O,mass density,"293 K, w2 = 0.05",899.1 ± 4.1 kg/m3
same,mass density,"293 K, w2 = 0.1",907.3 ± 3.9 kg/m3
same,viscosity,"298 K, w2 = 0.05",281 ± 19 mPa·s
same,viscosity,"298 K, w2 = 0.1",174 ± 12 mPa·s
same,mass density,"298 K, w2 = 0.05",895.8 ± 4.1 kg/m3
same,mass density,"298 K, w2 = 0.1",903.9 ± 3.9 kg/m3
same,viscosity,"303 K, w2 = 0.05",203 ± 14 mPa·s
same,viscosity,"303 K, w2 = 0.1",137 ± 9 mPa·s
same,mass density,"303 K, w2 = 0.05",892.6 ± 4.1 kg/m3
same,mass density,"303 K, w2 = 0.1",900.7 ± 3.9 kg/m3
same,viscosity,"308 K, w2 = 0.05",150 ± 10 mPa·s
same,viscosity,"308 K, w2 = 0.1",103 ± 7 mPa·s
same,mass density,"308 K, w2 = 0.05",889.3 ± 4.1 kg/m3
same,mass density,"308 K, w2 = 0.1",897.4 ± 3.9 kg/m3
same,viscosity,"313 K, w2 = 0.05",114 ± 8 mPa·s
same,viscosity,"313 K, w2 = 0.1",78 ± 5 mPa·s
same,mass density,"313 K, w2 = 0.05",886.1 ± 4 kg/m3
same,mass density,"313 K, w2 = 0.1",894.1 ± 3.8 kg/m3
same,viscosity,"318 K, w2 = 0.05",87 ± 6 mPa·s
same,viscosity,"318 K, w2 = 0.1",59 ± 4 mPa·s
same,mass density,"318 K, w2 = 0.05",882.9 ± 4 kg/m3
same,mass density,"318 K, w2 = 0.1",890.7 ± 3.8 kg/m3
same,viscosity,"323 K, w2 = 0.05",68 ± 4 mPa·s
same,viscosity,"323 K, w2 = 0.1",47 ± 3 mPa·s
same,mass density,"323 K, w2 = 0.05",879.7 ± 4 kg/m3
same,mass density,"323 K, w2 = 0.1",887.4 ± 3.8 kg/m3
same,viscosity,"328 K, w2 = 0.05",54 ± 4 mPa·s
same,viscosity,"328 K, w2 = 0.1",37 ± 2 mPa·s
same,mass density,"328 K, w2 = 0.05",876.5 ± 3.9 kg/m3
same,mass density,"328 K, w2 = 0.1",884 ± 3.8 kg/m3
same,viscosity,"333 K, w2 = 0.05",44 ± 3 mPa·s
same,viscosity,"333 K, w2 = 0.1",31 ± 2 mPa·s
same,viscosity,"338 K, w2 = 0.05",36 ± 2 mPa·s
same,viscosity,"338 K, w2 = 0.1",25 ± 2 mPa·s
same,viscosity,"343 K, w2 = 0.05",31 ± 2 mPa·s
same,viscosity,"343 K, w2 = 0.1",23 ± 2 mPa·s
CC(=O)[O-].CCCCn1cc[n+](C)c1 [1-butyl-3-methylimidazolium acetate] + CC(CC(C)(C)C)CP(=O)([O-])CC(C)CC(C)(C)C.CCCCCCCCCCCCCC[P+](CCCCCC)(CCCCCC)CCCCCC,mass density,"293 K, w1 = 0.2",908.8 ± 3.8 kg/m3
same,mass density,"293 K, w1 = 0.5",937.1 ± 3 kg/m3
same,viscosity,"298 K, w1 = 0.2",160 ± 11 mPa·s
same,viscosity,"298 K, w1 = 0.5",33 ± 2 mPa·s
same,mass density,"298 K, w1 = 0.2",905.6 ± 3.8 kg/m3
same,mass density,"298 K, w1 = 0.5",933.6 ± 3 kg/m3
same,viscosity,"303 K, w1 = 0.2",123 ± 8 mPa·s
same,viscosity,"303 K, w1 = 0.5",27 ± 2 mPa·s
same,mass density,"303 K, w1 = 0.2",902.4 ± 3.7 kg/m3
same,mass density,"303 K, w1 = 0.5",930.1 ± 3 kg/m3
same,viscosity,"308 K, w1 = 0.2",97 ± 6 mPa·s
same,viscosity,"308 K, w1 = 0.5",22 ± 2 mPa·s
same,mass density,"308 K, w1 = 0.2",899.3 ± 3.7 kg/m3
same,mass density,"308 K, w1 = 0.5",926.6 ± 2.9 kg/m3
same,viscosity,"313 K, w1 = 0.2",77 ± 5 mPa·s
same,viscosity,"313 K, w1 = 0.5",19 ± 1 mPa·s
same,mass density,"313 K, w1 = 0.2",896.1 ± 3.7 kg/m3
same,mass density,"313 K, w1 = 0.5",923.1 ± 2.9 kg/m3
same,viscosity,"318 K, w1 = 0.2",63 ± 4 mPa·s
same,viscosity,"318 K, w1 = 0.5",17 ± 1 mPa·s
same,mass density,"318 K, w1 = 0.2",893 ± 3.7 kg/m3
same,mass density,"318 K, w1 = 0.5",919.6 ± 2.9 kg/m3
same,viscosity,"323 K, w1 = 0.2",52 ± 3 mPa·s
same,viscosity,"323 K, w1 = 0.5",15 ± 1 mPa·s
same,mass density,"323 K, w1 = 0.2",889.9 ± 3.6 kg/m3
same,mass density,"323 K, w1 = 0.5",916.1 ± 2.9 kg/m3
same,viscosity,"328 K, w1 = 0.2",44 ± 3 mPa·s
same,viscosity,"328 K, w1 = 0.5",13 ± 1 mPa·s
same,mass density,"328 K, w1 = 0.2",886.7 ± 3.6 kg/m3
same,mass density,"328 K, w1 = 0.5",912.6 ± 2.9 kg/m3
same,viscosity,"333 K, w1 = 0.2",37 ± 2 mPa·s
same,viscosity,"333 K, w1 = 0.5",12 ± 1 mPa·s
same,mass density,"333 K, w1 = 0.2",883.5 ± 3.6 kg/m3
same,mass density,"333 K, w1 = 0.5",909.2 ± 2.8 kg/m3
same,viscosity,"338 K, w1 = 0.2",32 ± 2 mPa·s
same,viscosity,"338 K, w1 = 0.5",11 ± 1 mPa·s
same,mass density,"338 K, w1 = 0.2",880.3 ± 3.6 kg/m3
same,mass density,"338 K, w1 = 0.5",905.7 ± 2.8 kg/m3
same,viscosity,"343 K, w1 = 0.2",28 ± 2 mPa·s
same,viscosity,"343 K, w1 = 0.5",10 ± 1 mPa·s
same,mass density,"343 K, w1 = 0.2",877.1 ± 3.5 kg/m3
same,mass density,"343 K, w1 = 0.5",902.2 ± 2.8 kg/m3
